Key:
[1] = tested on: guinea pig peripheral blood mononuclear cells; assay: IL-6 secretion in LPS-stimulated guinea pig peripheral blood mononuclear cells; format: cell-based; settings: 16 hrs, bile acid 50 μM; non-addition: 520 with LPS, 32 without
Protocol: The peripheral blood was taken from guinea pig, and mononuclear cell fraction was obtained by a density separation method using Ficoll-Paque PLUS (Amersham Pharmacia). The fraction at a concentration of 1×10^5/well was cultured for 16 hrs in the presence of […] LPS in a 96-well plate upon addition of bile acid or a test compound. The culture supernatant was collected and TNF and IL-6 in the supernatant were quantitated.
The quantitation of IL-6 in the culture supernatant was performed using IL-6 dependent cell line 7TD1 (RIKEN Institute) with its growth promoting action as an index. First, 7TD1 cells were suspended in a basic medium (RPMI1640 (Invitrogen) supplemented with 1% non-essential amino acid (Invitrogen) and 55 μM 2-mercaptoethanol (Invitrogen)) and seeded in a 96-well plate at a concentration of 2×10^3/well. Immediately after seeding, peripheral blood mononuclear cell culture supernatant diluted with a dilution medium (the above-mentioned basic medium supplemented with 10% FBS) was added and the cells were cultured for 2 days. The IL-6 content was determined by measuring the growth of the 7TD1 cells in the obtained culture product using a CellTiter-Glo (Promega). As the standard sample, human recombinant IL-6 (Genzyme) was used.

[2] = tested on: THP-TGR5 cells; assay: suppression of LPS induced TNF α secretion in THP-TGR5 cells; format: cell-based, human; settings: bile acid 50 μM, non-addition: 11 with LPS, 2.7 without LPS
Protocol: TGR5 high expression cells were established by introducing TGR5 gene into human macrophage cells line THP-1. According to a conventional method, pcDNA-TGR5 incorporating cDNA of human TGR5 in pcDNA3.1 (Invitrogen) was prepared. Then, THP-1 was cultured in a medium (RPMI1640 10% FBS), and pcDNA-TGR5 was introduced thereinto using lipofectamine (Gibco BRL) according to conventional methods. Thereafter, G418 (Gibco BRL) was added to the medium to select resistant strains, and cells line, THP-TGR5 that expresses TGR5 stably and highly was established.
THP-TGR5 thus obtained was diluted to a concentration of 1×10^5/well and cultured overnight in a 96 well plate in the presence of 10^−8M phorbol ester (Wako Pure Chemical Industries, Ltd.). THP-TGR5 after culture was cultured for 1 hr in a medium containing a test compound or a control medium (0.1 ml) free of a test compound, 0.1 ml of a medium containing the same concentration of the test compound or a control medium free of the test compound, each of which containing LPS for induction of TNF α secretion was added (concentration at the time of addition 50 ng/ml) and the mixture was incubated at 37° C. under 5% CO2 for 14 hrs. The culture supernatant was collected and the TNF α content was measured with the growth suppressing effect on the TNF sensitive cell line L929 (RIKEN Institute) as an index.
L929 cells were seeded in a 96 well plate at 1.2×10^4/well and incubated overnight at 37° C. under 5% CO2. The obtained culture product was cultured overnight in a medium (phenol red free Dulbecco's Modified Eagle Medium (Invitrogen) supplemented with 10% fetal bovine serum (Invitrogen), 100 U/ml penicillin and 100 μg/ml streptomycin), which contained the aforementioned THP-TGR5-containing culture supernatant and 2 μg/ml Actinomycin D (Wako Pure Chemical Industries, Ltd.). The TNF α content was determined by measuring the growth of the L929 cells in the obtained culture product using a Cell Counting Kit-8 (Wako Pure Chemical Industries, Ltd.). As the standard sample, human recombinant TNF α (Genzyme) was used.

C[C@H](CCC(=O)NCCS(=O)(=O)O)[C@H]1CC[C@H]2[C@@H]3CC[C@@H]4C[C@H](O)CC[C@]4(C)[C@H]3CC[C@]12C [TLCA, taurolithocholic acid, reference compound]
IL-6 [1]: 260 pg/mL
TNF α [2]: 0.22 ng/mL

Source: patent US7625887B2, “Receptor agonists” (Takeda Pharmaceutical Company Limited, priority 2003, dated 2009)
